Measured values reported in patent publication US20030232101A1, “Topical formulations of resorcinols and cannibinoids and methods of use” (Immugen Pharmaceuticals, Inc., priority 2002, published 2003).
Where two headings read alike, the source gives them in different places.

How the values were obtained:
IIIB strain of HIV-1 = assay: Virus attachment assay, HeLa CD4 LTR β-gal cells (Experimental Example 2); type: cell-based; conditions: virus adsorption interval 1 to 2 h
Method: This assay detects compounds that block virus attachment using HeLa CD4 LTR β-gal cells. HeLa CD4 LTR β-gal cells were cultured with selection antibiotics. Twenty-four h prior to initiation of the assay, the cells were trypsinized, counted and plated in a 0.2 cm well in media without selection antibiotics. At 24 h media is removed and compound in media placed on the cells and incubated for 15 min at 37° C. A known titer of the IIIB strain of HIV-1 was then added to the wells and the incubation continued for 1 to 2 h. At the end of the incubation the wells were washed 2 times with media and the culture continued for 40 to 48 h. At termination of the assay, media is removed and β-galactosidase enzyme expression determined by chemiluminescence per manufacturer's instructions (Tropix Gal-screen, Bedford Mass.). Compound toxicity is monitored on a sister plate by XTT or MTS dye reduction. All determinations are performed in triplicate with serial_Log10 dilution of the test materials.

[1] = system: peripheral blood mononuclear cells (PBMCs); assay: PBMC cell viability in time of addition assay (MTS / Trypan Blue); type: cell-based, Human; conditions: read-out: TC50 (the source's name)
Text: (§1) Human peripheral blood mononuclear cells (PBMCs) from a minimum of 2 donors, that have been blasted with PHA and IL-2, were counted, viability determined by Trypan Blue dye exclusion and mixed in equal ratios. Pooled donors were used to minimize the variability observed between individual donors which results from quantitative and qualitative differences in HIV infection and overall response to the PHA and IL-2 of primary lymphocyte populations. The cells were resuspended at 1×10^6 cells /mL in RPMI 1640 without phenol red supplemented with 15% Fetal Bovine Serum (heat inactivated), 2 mM L-glutamine, 100 U/mL penicillin, 100 μg/mL streptomycin, 10 μg/mL gentamycin and IL-2 (20 U/mL, R&D Systems, Minneapolis, Minn.). Fifty microliters of cells were then distributed to the inner 60 wells of a 96 well round bottom microtiter culture plate in a standard format developed by the Infectious Disease Research department of Southern Research Institute. Each plate contains cell control wells (cells only), virus control wells (cells plus virus), and experimental wells (drug plus cells plus virus). Alternatively, cells were cultured in T25 cm^2 or T75 cm^2 tissue culture flasks at a starting density of 1×10^6 cells per ml. Serially diluted compounds were added to the microtiter plate or tissue culture flask followed by the appropriate pre-titered strain of HIV-1. For virus replication inhibition experiments the HIV-1 strain RoJo was used. This is a low passage presumable subtype B pediatric isolate with a syncytium inducing (SI) phenotype in MT-2 cells isolated by Southern Research Institute personnel. All samples were assayed in triplicate where possible with an accompanying determination of compound toxicity. The final volume per well in the microtiter plates was 200 μL. The final volume in the tissue culture flask varied depending upon experimental design and flask size. Assays were incubated for 6 days in a humidified atmosphere at 37° C., 5% CO^2, after which supernatants were collected, for analysis of RT activity and cell viability by MTS dye reduction. Culture were also examined microscopically, any abnormalities noted, and in the case of tissue culture flasks cell counts and viability determined by Trypan Blue Dye exclusion.
(§2) Time of addition assays were performed with PBMCs in two ways. For both assays, PBMCs were isolated and cultured under the conditions as described above. Time of addition assays were carried out in either a tissue culture flask format (T-75 cm^2) or in microtiter wells. In both cases due to the lack of plastic adherence and heterogeneity of the PBMC population for susceptibility to infection, it was not possible to use complete removal of virus following a timed adsorption to synchronize the infection and limit the assay to a single round of infection. Therefore, serial washing by partial removal of the media was used to reduce the concentration of virus and compound (if required) in the assay. Compound addition in relationship to antiviral activity was either assessed over a short addition interval immediately before or after virus addition or for up to 72 h post infection. For all assays virus replication was assessed at 6 days of culture by determining RT expression in cell-free supernatants. In the tissue culture flask format cells were counted and Trypan Blue Dye exclusion used to monitor compound cytotoxicity. Cell viability in the 96 well microtiter plate format was determined by MTS dye reduction. AZT was used as a positive control.
At assay termination the assay plates were stained with the soluble tetrazolium-based dye MTS (CellTiter96® Reagent Promega) to determine cell viability and quantify compound toxicity. MTS is metabolized by the mitochondria enzymes of metabolically active cells to a soluble formazan product, allowing the rapid quantitative analysis cell viability and compound cytotoxicity. […] At termination of the assay 20 μL of MTS reagent was added per well and incubated for 4 h at 37° C. […]

HIV-1 strain RoJo = assay: PBMC time of addition assay (RT activity in supernatant at 6 days); type: cell-based; conditions: for IC50: read-out: IC50
Text: as §1, §2
Reverse transcriptase activity was measured in cell-free supernatants. Tritiated thymidine triphosphate (NEN) (TTP) was resuspended in distilled H2O at 5 Ci/mL. Poly rA and oligo dT were prepared as a stock solution which was kept at −20° C. The RT reaction buffer was prepared fresh on a daily basis and consists of 125 μL 1.0 M EGTA, 125 μL dH2O, 110 μL 10% SDS, 50 μL 1.0 M Tris (pH 7.4), 50 μL 1.0 M DTT, and 40 μL 1.0 M MgCl2. […]

HIV-1 (96USHIPS7 strain) = assay: HIV attachment assay in PBMCs (cell-associated p24); type: cell-based; conditions: time 0 h
Method: ELISA kits were purchased from Coulter Electronics. The assay was performed according to the manufacturer's instructions. Control curves were generated in each assay to accurately quantitate the amount of p24 antigen in each sample. For experiments using cell lysates. Fifty thousand (5×10^4) viable cells were lysed in Coulter ELISA buffer and subjected to 1 round of freeze/thawed to liberate trapped p24 and p24 detected per manufacturers instructions. HIV capsid protein (p24) was quantitated spectrophotometrically at 450 nm using a Molecular Devices Vmax plate reader using a standard curve. Final concentrations were calculated from the optical density values using the Molecular Devices Soft Max software package.
The attachment assay with PBMCs was performed as follows. Briefly, 1×10^6 PHA/IL-2 PBMCs were incubated for 0, 2, 4 and 24 hours with IMG compounds and cannabidiol in polypropylene tubes. A pre-titered amount of HIV-1 (96USHIPS7 strain, obtained from the AIDS Research and Reference Reagent Program ) was added in the presence of compound and incubated for 3 h at 37° C. After incubation the cultures were washed 3 times (400×g, 10 min, 4° C.) with media (1:25,000 dilution of input p24), the cell pellets lysed with p24 lysing buffer (Coulter) and p24 content determined by ELISA.
PBMCs pretreated with compounds for 0, 2, 4, and 24 were incubated with cell-free HIV-1 for 3 h and the excess unbound HIV removed. The assessed the amount of HIV bound to the cell was then assessed by measuring cell-associated p24 content of total cell lysates.

## Cc1cn([C@H]2C[C@H](N=[N+]=[N-])[C@@H](CO)O2)c(=O)[nH]c1=O [AZT, reference compound]
IIIB strain of HIV-1
  activity in virus attachment assay: not active
[1]; treatment 6 h post
  CC50: > 4000 nM
[1]; treatment at infection
  CC50: > 4000 nM
[1]; treatment −4 h pre
  CC50: > 4000 nM
HIV-1 strain RoJo; 4 h preincubation
  enhancement of activity: 4.6 fold
HIV-1 strain RoJo; addition prior to infection, pre-treatment 0 h
  IC50: 1 nM
HIV-1 strain RoJo; addition prior to infection, pre-treatment 2 h
  IC50: 1 nM
HIV-1 strain RoJo; addition prior to infection, pre-treatment 4 h
  IC50: 1 nM
HIV-1 strain RoJo; addition prior to infection, pre-treatment 24 h
  IC50: 3 nM
HIV-1 strain RoJo; treatment 6 h post
  IC50: 4.6 nM
HIV-1 strain RoJo; treatment at infection
  IC50: 3.7 nM
HIV-1 strain RoJo; treatment −4 h pre
  IC50: 0.8 nM

## Cc1ccnc2c1NC(=O)c1cccnc1N2C1CC1 [Nevirapine, reference compound]
HIV-1 (96USHIPS7 strain); 10 μM
  % Control: 81.2%
  pg p24: 311.7 pg
  suppression of virus attachment: 19% suppression
HIV-1 (96USHIPS7 strain); 10 μM, listed as nevaripine
  suppression of virus attachment: 19%

## Dextran Sulfate [reference compound]
HIV-1 (96USHIPS7 strain); 20 μg/ml
  % Control: 57.6%
  pg p24: 221 pg
  suppression of virus attachment: 43.4% suppression
HIV-1 (96USHIPS7 strain); 20 μg/ml, listed as dextran sulfate
  suppression of virus attachment: 43.4%
